Assay results reported in PubChem BioAssay (NCI).
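Interpolation was linear, between the two tested concentrations surrounding the appropriate level; five concentrations were tested over 48 hours in 96-well plates. At the GI50, growth is halved. TGI denotes the concentration required for complete inhibition of growth.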

How the values were obtained:
Experiment in all cases: growth of human tumour cells (NCI), 48 h
NCI-H460 lung = test system: NCI-H460 lung
SK-OV-3 ovarian = test system: SK-OV-3 ovarian
SF-539 CNS = test system: SF-539 CNS
SN12C renal = test system: SN12C renal
IGROV1 ovarian = test system: IGROV1 ovarian
MCF7 breast = test system: MCF7 breast
MDA-MB-435 = test system: MDA-MB-435
SNB-19 CNS = test system: SNB-19 CNS
UO-31 renal = test system: UO-31 renal
M14 melanoma = test system: M14 melanoma
RXF 393 renal = test system: RXF 393 renal
A498 renal = test system: A498 renal
HT29 colon = test system: HT29 colon
NCI/ADR-RES ovarian = test system: NCI/ADR-RES ovarian
SK-MEL-2 melanoma = test system: SK-MEL-2 melanoma
MOLT-4 leukemia = test system: MOLT-4 leukemia
UACC-62 melanoma = test system: UACC-62 melanoma
SNB-75 CNS = test system: SNB-75 CNS
SF-268 CNS = test system: SF-268 CNS
HOP-62 NSCLC = test system: HOP-62 NSCLC
HS 578T breast = test system: HS 578T breast
OVCAR-4 ovarian = test system: OVCAR-4 ovarian
LOX IMVI melanoma = test system: LOX IMVI melanoma
HOP-92 NSCLC = test system: HOP-92 NSCLC
SF-295 CNS = test system: SF-295 CNS
HCC-2998 colon = test system: HCC-2998 colon
NCI-H23 lung = test system: NCI-H23 lung
HL-60(TB) leukemia = test system: HL-60(TB) leukemia
UACC-257 melanoma = test system: UACC-257 melanoma
MALME-3M melanoma = test system: MALME-3M melanoma
DU-145 prostate = test system: DU-145 prostate
ACHN renal = test system: ACHN renal
OVCAR-8 ovarian = test system: OVCAR-8 ovarian
HCT-116 colon = test system: HCT-116 colon
SK-MEL-28 melanoma = test system: SK-MEL-28 melanoma
OVCAR-5 ovarian = test system: OVCAR-5 ovarian
COLO 205 colon = test system: COLO 205 colon
NCI-H522 lung = test system: NCI-H522 lung
A549 NSCLC = test system: A549 NSCLC
SR leukemia = test system: SR leukemia
KM12 colon = test system: KM12 colon
EKVX NSCLC = test system: EKVX NSCLC
786-0 renal = test system: 786-0 renal
OVCAR-3 ovarian = test system: OVCAR-3 ovarian
TK-10 renal = test system: TK-10 renal
K-562 leukemia = test system: K-562 leukemia
NCI-H226 lung = test system: NCI-H226 lung
PC-3 prostate = test system: PC-3 prostate
CAKI-1 renal = test system: CAKI-1 renal
SK-MEL-5 melanoma = test system: SK-MEL-5 melanoma
T-47D breast = test system: T-47D breast
U251 CNS = test system: U251 CNS
HCT-15 colon = test system: HCT-15 colon
SW-620 colon = test system: SW-620 colon
MDA-MB-231 breast = test system: MDA-MB-231 breast
BT-549 breast = test system: BT-549 breast

`O=C(Nc1cccnc1)c1cccs1` was tested, and the GI50 (NCI-H460 lung) was 6.6 µM, the TGI (NCI-H460 lung) was > 100 µM and the GI50 (SK-OV-3 ovarian) was 5.57 µM. For the same compound, the TGI (SK-OV-3 ovarian) was > 100 µM, the GI50 (SF-539 CNS) was 4.51 µM and the TGI (SF-539 CNS) was > 100 µM. For the same compound, the GI50 (SN12C renal) was 25.8 µM, the TGI (SN12C renal) was > 100 µM and the GI50 (IGROV1 ovarian) was > 100 µM. For the same compound, the TGI (IGROV1 ovarian) was > 100 µM, the GI50 (MCF7 breast) was 1.67 µM and the TGI (MCF7 breast) was > 100 µM. The GI50 (MDA-MB-435) was 2.43 µM, the TGI (MDA-MB-435) was > 100 µM and the GI50 (SNB-19 CNS) was 9.56 µM. The TGI (SNB-19 CNS) was > 100 µM, the GI50 (UO-31 renal) was > 100 µM and the TGI (UO-31 renal) was > 100 µM. The GI50 (M14 melanoma) was 0.506 µM, the TGI (M14 melanoma) was > 100 µM and the GI50 (RXF 393 renal) was 7.36 µM. For the same compound, the TGI (RXF 393 renal) was > 100 µM, the GI50 (A498 renal) was > 100 µM and the TGI (A498 renal) was > 100 µM. The GI50 (HT29 colon) was 2.39 µM, the TGI (HT29 colon) was > 100 µM and the GI50 (NCI/ADR-RES ovarian) was 43.8 µM. The TGI (NCI/ADR-RES ovarian) was > 100 µM, the GI50 (SK-MEL-2 melanoma) was > 100 µM and the TGI (SK-MEL-2 melanoma) was > 100 µM. For the same compound, the GI50 (MOLT-4 leukemia) was 3.19 µM, the TGI (MOLT-4 leukemia) was > 100 µM and the GI50 (UACC-62 melanoma) was 28.1 µM. The TGI (UACC-62 melanoma) was > 100 µM, the GI50 (SNB-75 CNS) was 4.77 µM and the TGI (SNB-75 CNS) was > 100 µM. The GI50 (SF-268 CNS) was 4.54 µM, the TGI (SF-268 CNS) was > 100 µM and the GI50 (HOP-62 NSCLC) was 42.2 µM. The TGI (HOP-62 NSCLC) was > 100 µM, the GI50 (HS 578T breast) was > 100 µM and the TGI (HS 578T breast) was > 100 µM. For the same compound, the GI50 (OVCAR-4 ovarian) was 1.11 µM, the TGI (OVCAR-4 ovarian) was > 100 µM and the GI50 (LOX IMVI melanoma) was > 100 µM. For the same compound, the TGI (LOX IMVI melanoma) was > 100 µM, the GI50 (HOP-92 NSCLC) was > 100 µM and the TGI (HOP-92 NSCLC) was > 100 µM. For the same compound, the GI50 (SF-295 CNS) was 5.04 µM, the TGI (SF-295 CNS) was > 100 µM and the GI50 (HCC-2998 colon) was 5.56 µM. For the same compound, the TGI (HCC-2998 colon) was > 100 µM, the GI50 (NCI-H23 lung) was 4.84 µM and the TGI (NCI-H23 lung) was > 100 µM. The GI50 (HL-60(TB) leukemia) was 48.1 µM, the TGI (HL-60(TB) leukemia) was > 100 µM and the GI50 (UACC-257 melanoma) was > 100 µM. The TGI (UACC-257 melanoma) was > 100 µM, the GI50 (MALME-3M melanoma) was > 100 µM and the TGI (MALME-3M melanoma) was > 100 µM. For the same compound, the GI50 (DU-145 prostate) was 4.6 µM, the TGI (DU-145 prostate) was > 100 µM and the GI50 (ACHN renal) was 8.98 µM. The TGI (ACHN renal) was > 100 µM, the GI50 (OVCAR-8 ovarian) was 8.94 µM and the TGI (OVCAR-8 ovarian) was > 100 µM. For the same compound, the GI50 (HCT-116 colon) was 1.89 µM, the TGI (HCT-116 colon) was > 100 µM and the GI50 (SK-MEL-28 melanoma) was 0.677 µM. For the same compound, the TGI (SK-MEL-28 melanoma) was > 100 µM, the GI50 (OVCAR-5 ovarian) was 45.4 µM and the TGI (OVCAR-5 ovarian) was > 100 µM. The GI50 (COLO 205 colon) was 3.08 µM, the TGI (COLO 205 colon) was > 100 µM and the GI50 (NCI-H522 lung) was > 100 µM. The TGI (NCI-H522 lung) was > 100 µM, the GI50 (A549 NSCLC) was 5.6 µM and the TGI (A549 NSCLC) was > 100 µM. For the same compound, the GI50 (SR leukemia) was 8.47 µM, the TGI (SR leukemia) was > 100 µM and the GI50 (KM12 colon) was 0.941 µM. For the same compound, the TGI (KM12 colon) was > 100 µM, the GI50 (EKVX NSCLC) was > 100 µM and the TGI (EKVX NSCLC) was > 100 µM. For the same compound, the GI50 (786-0 renal) was 6.77 µM, the TGI (786-0 renal) was > 100 µM and the GI50 (OVCAR-3 ovarian) was 1.19 µM. For the same compound, the TGI (OVCAR-3 ovarian) was > 100 µM, the GI50 (TK-10 renal) was > 100 µM and the TGI (TK-10 renal) was > 100 µM. The GI50 (K-562 leukemia) was 0.728 µM, the TGI (K-562 leukemia) was > 100 µM and the GI50 (NCI-H226 lung) was 41 µM. For the same compound, the TGI (NCI-H226 lung) was > 100 µM, the GI50 (PC-3 prostate) was > 100 µM and the TGI (PC-3 prostate) was > 100 µM. For the same compound, the GI50 (CAKI-1 renal) was 1.4 µM, the TGI (CAKI-1 renal) was > 100 µM and the GI50 (SK-MEL-5 melanoma) was 53 µM. For the same compound, the TGI (SK-MEL-5 melanoma) was > 100 µM, the GI50 (T-47D breast) was > 100 µM and the TGI (T-47D breast) was > 100 µM. The GI50 (U251 CNS) was 1.86 µM, the TGI (U251 CNS) was > 100 µM and the GI50 (HCT-15 colon) was 0.658 µM. The TGI (HCT-15 colon) was > 100 µM, the GI50 (SW-620 colon) was 2.09 µM and the TGI (SW-620 colon) was > 100 µM. For the same compound, the GI50 (MDA-MB-231 breast) was 81.3 µM, the TGI (MDA-MB-231 breast) was > 100 µM and the GI50 (BT-549 breast) was 6.78 µM. For the same compound, the TGI (BT-549 breast) was > 100 µM.
